The record followed here is article PMC12040169 (PLOS Biology, 2025).

A short description of the data set: in vitro. The note with it: human, hela cells, % viability.

For orientation: viability means a read-out of living cells in per cent, often relative to untreated cells. `Cc1nn(C)c(Cl)c1S(=O)(=O)Nc1ccc2cn[nH]c2c1` [CBK067141]: the viability at 28.5 h, 10 µM was determined as 90.2%.

Turning to `Cc1ccccc1C(c1cnccn1)N(C)C(=O)C1CCN(C(=O)c2ccccc2)CC1` (centres unmarked) [CBK060208], the viability at 28.5 h, 10 µM was determined as 94.4%.

`O=C(CC1(C(=O)O)CCCC1)NC1CCS(=O)(=O)C1` (centres unmarked) [CBK286855]: the viability at 28.5 h, 10 µM worked out at 92.3%. Next, `COC(=O)NC(=S)Nc1ccc2c(c1)OCCO2` [CBK018644]: 79%. Next, `CCCn1cnc2sc(C(=O)O)c(C)c2c1=O` [CBK287199]: 96%. Next, `COC(=O)CNC(c1ccccc1)c1cc(Br)ccc1N` (centres unmarked) [CBK019222]: 96.8%; `CN(C)CCn1c2c(c3ccccc31)CCCn1nnnc1-2` [CBK267713C]: 94.8%. Turning to `CCCCCOc1ccc(Nc2cc(-c3ccccc3N(C)C)ncn2)cc1` [CBK090890], the viability at 28.5 h, 10 µM came out at 81.9%. Under `O=S(=O)(Cc1noc([C@@H]2C[C@@H](O)CN2Cc2ccc(F)cc2)n1)c1ccc(F)cc1` [CBK288831] stands 118%; under `Cc1cc2n(n1)[C@@H](C(F)F)C[C@@H](C1CCCN(C(=O)C(C)C)C1)N2` (some centres unmarked) [CBK284722], 96.1%. Next, `O=C(O)CCn1c(C2CCCCC2)nc2ccccc21` [CBK111480]: 86.2%; `Cc1ccc(CSCCNS(=O)(=O)c2ccsc2C(=O)O)cc1` [CBK296727]: 92.6%; `CC(C)(C)c1ccc(S(=O)(=O)N2CCC3(CC2)OCCO3)cc1` [CBK038429]: 111%.

With `CC(C)(C)OC(=O)NCCNCc1ccccc1Br` [CBK056693], the viability at 28.5 h, 10 µM was determined as 92.1%. Next, `Cn1cc(Cl)c(C2CCCCCN2C(=O)c2cc(C3CC3)on2)n1` (centres unmarked) [CBK285120]: 109%. In the case of `COc1cc2oc(=O)c(CC(=O)N[C@@H](CC(C)C)C(=O)O)c(C)c2cc1Cl` [CBK286772], the viability at 28.5 h, 10 µM stood at 104%. For the compound `Clc1ccc(CN2CCN(c3nccnc3OCCN3CCOCC3)CC2)cc1Cl` [CBK082884T], the viability at 28.5 h, 10 µM was determined as 96.7%.

On to `CN(c1cccc(C#N)c1)C1CCN(c2nc3c(cnn3C)c(=O)[nH]2)C1` (centres unmarked) [CBK305462], for which the viability at 28.5 h, 10 µM was found to be 91.8%. Next, `CCOc1cc(/C=c2/sc3nc(=O)c(Cc4ccccc4)nn3c2=O)ccc1OC(C)=O` [CBK077455]: 89.2%; `COc1ccc(CN2CCCN(C(=O)c3cccc(C#N)c3)CC2)cc1` [CBK305281]: 88.5%; `CN1CCN(NC(=O)CN(C)S(=O)(=O)c2cc(Cl)ccc2Cl)CC1` [CBK267366]: 94.2%.

For the compound `O=C1NCCN(C(=O)COc2ccc(F)cc2F)C1Cc1ccccc1-c1cccnc1` (centres unmarked) [CBK285832], the viability at 28.5 h, 10 µM was 95.6%. Under `CS(=O)(=O)c1ccc(-n2cc(CN3CCC(Sc4ccccc4)CC3)nn2)cc1` [CBK149468] stands 101%; under `O=C(NC(=S)Nc1ccc(-c2nc3ncccc3o2)cc1)c1ccc2c(c1)OCCO2` [CBK265812], 96.4%; under `COc1cc(Nc2cncc(-c3cccc(F)c3)n2)cc(OC)c1OC` [CBK065272], 93%. As to `COC(=O)c1ccccc1NC(=O)Cn1cncc1-c1ccc([N+](=O)[O-])cc1` [CBK266741], the viability at 28.5 h, 10 µM was determined as 91.9%.

For `O=C(COc1ccccc1Cl)NC(=S)Nc1cccc(C(=O)O)c1` [CBK265662], the viability at 28.5 h, 10 µM stood at 91.4%.

Take `Cc1cccc(C)c1NC(=O)CSc1nnc(C(O)c2ccccc2)n1C` (centres unmarked) [CBK269742]: the viability at 28.5 h, 10 µM was determined as 84.8%. On to `O=C(NC(=S)Nc1ccccc1C(=O)O)c1ccc(Cl)cc1` [CBK265044], for which the viability at 28.5 h, 10 µM was 96.2%. Under `CCN1c2ccc(-c3cncn3CCCn3ccnc3C)cc2CC1C` (centres unmarked) [CBK281924] stands 90.7%; under `CN(C)CCCNC(=O)c1cc(-c2ccc(Cl)cc2)[nH]n1` [CBK116564T], 98.5%. Regarding `Cc1cc(N2CCOCC2)nc2ccc(NC(=O)c3ccncc3)cc12` [CBK288587], the viability at 28.5 h, 10 µM is 99.3%. Under `COc1ccc(-c2nnc3ccc(SCC(=O)N4CCCC4)nn23)cc1OC` [CBK287527] stands 85.9%. Next, `CN(C)/C=N/c1nc(=O)n([C@H]2CC(O)[C@@H](CO)O2)cc1/C=C/C(=O)NCCCCCCNC(=O)C(F)(F)F` (some centres unmarked) [CBK201330]: 97.1%. Under `CCc1nnc(NS(=O)(=O)c2ccc(NCc3ccccc3O)cc2)s1` [CBK085149] stands 113%; under `O=C(c1ccco1)N1CCN(Cc2nc3ccccc3c(=O)n2-c2ccc(F)cc2)CC1` [CBK267226], 94.3%. `O=C(NC(=S)Nc1cc(-c2nc3ccccc3[nH]2)ccc1Cl)c1ccccc1[N+](=O)[O-]` [CBK268649]: the viability at 28.5 h, 10 µM was found to be 93.7%. Under `O=C(c1cc[nH]c1)N1CCN(C(=O)c2ccco2)CC1` [CBK144467] stands 90%. On to `O=C1NC(=O)c2c(NC(=O)C3CCCCC3)cccc21` [CBK019837], for which the viability at 28.5 h, 10 µM was determined as 88.3%. Under `FC(F)(F)c1ccc2[nH]c(Cn3cncn3)nc2c1` [CBK007335] stands 85.3%. Consider `Cc1ncccc1C(=O)N1CCC(F)CC1` [CBK200398], for which the viability at 28.5 h, 10 µM came to 85.4%. Next, `CCOC(=O)c1cccc(NS(=O)(=O)c2cc(F)c(Br)cc2F)c1` [CBK034333]: 89.2%; `COc1cc(NC(=O)c2cccnc2)c(Cl)cc1NC(=O)c1ccc(Cl)cc1` [CBK033522]: 98.2%. For the compound `C(=N\c1ccc(Cc2ccc(/N=C/c3ccc[nH]3)cc2)cc1)/c1ccc[nH]1` [CBK261282], the viability at 28.5 h, 10 µM came to 101%.

Turning to `Nc1ncc(-c2cccc3ccccc23)nc1NCc1ccccc1` [CBK063565], the viability at 28.5 h, 10 µM was 99%.

With `CCCc1cc(=O)oc2cc(OCC(=O)OC(C)C)c(Cl)cc12` [CBK264459], the viability at 28.5 h, 10 µM is 96.9%. Next, `COc1ccc(C(NC(=O)NNC(=O)Cc2ccc(Cl)cc2)c2ccccc2C)cn1` (centres unmarked) [CBK083660]: 96.1%. As to `COc1ccc(C(C)C)cc1-c1cnc2[nH]c(=O)n(-c3ccc4[nH]ccc4c3)c2n1` [CBK064714], the viability at 28.5 h, 10 µM was found to be 90.7%. Next, `Cc1ccc2c(c1)C(C[C@H]1CN(C(=O)C3CCCC3)CC[C@H]1CC(=O)O)=NCC2` [CBK289163]: 88.5%.

Take `Cc1[nH]c(=O)[nH]c(=S)c1C(=O)NCc1ccc(Cl)cc1` [CBK115489]: the viability at 28.5 h, 10 µM is 106%. Under `CCc1ccccc1OCC(=O)Nc1ccc([N+](=O)[O-])cc1OC` [CBK265665] stands 97.1%. Under `O=C(Nc1cccc(-c2noc(-c3ccccn3)n2)c1)c1cccs1` [CBK270283] stands 88.9%.

With `Cc1ccc(S(=O)(=O)NCCSc2ccccc2)cc1[N+](=O)[O-]` [CBK263991], the viability at 28.5 h, 10 µM was 93.6%. As to `O=C(O)c1ccc(C(=O)Nc2cccc(NC(=O)C3CCCO3)c2)cc1` (centres unmarked) [CBK268613], the viability at 28.5 h, 10 µM came out at 105%. In the case of `O=C(Cc1ccccc1)NN1C(=O)/C(=C/c2ccccc2C(=O)O)SC1=S` [CBK262975], the viability at 28.5 h, 10 µM is 104%. Next, `Nc1nc(OCCOc2ccccc2)cnc1-c1ccsc1` [CBK145163]: 109%.
